Reference: patent US10870647B2, “Imidazopyridine derivative, method for preparing same, and pharmaceutical composition containing same as active ingredient for preventing or treating cancer” (DAEGU-GYEONGBUK MEDICAL INNOVATION FOUNDATION, priority 2016, dated 2020)

Assays:
Assay in all cases: Kinase selectivity, scanMAX Kinase assay panel (DiscoverX), % control at 1 uM
Type in all cases: binding
[1] = molecular target: T1, scanMAX Kinase assay panel (Homo sapiens, UniProt P22607, G697C); settings: FGFR3 (G697C); 1 uM; read-out: Percent Control (%)
T1 construct: purchased DiscoverX
Method in brief: (§1)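 Single-point screen at 1 uM compound in DMSO. Lower % control means stronger inhibition, with the cutoff for activity set at <35%.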

[2] = molecular target: T2, scanMAX Kinase assay panel (Homo sapiens, UniProt O00238); settings: BMPR1B; 1 uM; read-out: Percent Control (%)
T2 construct: purchased DiscoverX
Method in brief: as §1

[3] = molecular target: T3, scanMAX Kinase assay panel (Homo sapiens, UniProt P36888, R834Q); settings: FLT3 (R834Q); 1 uM; read-out: Percent Control (%)
T3 construct: purchased DiscoverX
T3 sequence (P36888 27-993 R834Q): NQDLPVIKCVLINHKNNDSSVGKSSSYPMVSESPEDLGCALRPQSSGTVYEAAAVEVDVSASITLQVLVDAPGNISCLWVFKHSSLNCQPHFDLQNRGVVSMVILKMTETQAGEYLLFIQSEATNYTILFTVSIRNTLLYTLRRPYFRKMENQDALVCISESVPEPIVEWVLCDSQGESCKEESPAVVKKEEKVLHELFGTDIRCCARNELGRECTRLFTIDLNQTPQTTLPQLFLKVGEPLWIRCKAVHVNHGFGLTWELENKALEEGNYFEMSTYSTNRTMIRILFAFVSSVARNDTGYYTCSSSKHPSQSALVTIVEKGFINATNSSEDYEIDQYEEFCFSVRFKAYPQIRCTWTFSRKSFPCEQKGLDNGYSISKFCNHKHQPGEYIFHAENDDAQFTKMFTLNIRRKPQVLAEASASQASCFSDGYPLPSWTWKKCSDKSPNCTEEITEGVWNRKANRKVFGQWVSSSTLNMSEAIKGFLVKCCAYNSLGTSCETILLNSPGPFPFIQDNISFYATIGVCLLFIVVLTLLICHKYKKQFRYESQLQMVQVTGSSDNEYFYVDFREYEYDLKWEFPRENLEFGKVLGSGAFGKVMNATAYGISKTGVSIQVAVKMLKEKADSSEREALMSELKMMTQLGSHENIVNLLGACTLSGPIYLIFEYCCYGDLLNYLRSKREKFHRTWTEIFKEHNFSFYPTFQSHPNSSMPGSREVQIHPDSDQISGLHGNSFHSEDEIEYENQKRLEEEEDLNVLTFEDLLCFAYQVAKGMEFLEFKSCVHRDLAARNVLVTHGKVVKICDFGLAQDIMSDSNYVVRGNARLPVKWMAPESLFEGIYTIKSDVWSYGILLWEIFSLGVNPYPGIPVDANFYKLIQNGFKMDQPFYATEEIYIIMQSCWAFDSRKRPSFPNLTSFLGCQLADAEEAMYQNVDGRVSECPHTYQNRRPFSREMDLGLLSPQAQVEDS
Method in brief: as §1

[4] = molecular target: T4, scanMAX Kinase assay panel (Homo sapiens, UniProt Q9P289); settings: MST4; 1 uM; read-out: Percent Control (%)
T4 construct: purchased DiscoverX
Method in brief: as §1

[5] = molecular target: T5, scanMAX Kinase assay panel (Homo sapiens, UniProt Q13554); settings: CAMK2B; 1 uM; read-out: Percent Control (%)
T5 construct: purchased DiscoverX
Method in brief: as §1

[6] = molecular target: T6, scanMAX Kinase assay panel (Homo sapiens, UniProt P28482); settings: ERK2; 1 uM; read-out: Percent Control (%)
T6 construct: purchased DiscoverX
Method in brief: as §1

[7] = molecular target: T7, scanMAX Kinase assay panel (Homo sapiens, UniProt P35968); settings: VEGFR2; 1 uM; read-out: Percent Control (%)
T7 construct: purchased DiscoverX
Method in brief: as §1

[8] = molecular target: T8, scanMAX Kinase assay panel (Homo sapiens, UniProt Q32MK0); settings: MLCK; 1 uM; read-out: Percent Control (%)
T8 construct: purchased DiscoverX
T8 sequence (Q32MK0 1-819): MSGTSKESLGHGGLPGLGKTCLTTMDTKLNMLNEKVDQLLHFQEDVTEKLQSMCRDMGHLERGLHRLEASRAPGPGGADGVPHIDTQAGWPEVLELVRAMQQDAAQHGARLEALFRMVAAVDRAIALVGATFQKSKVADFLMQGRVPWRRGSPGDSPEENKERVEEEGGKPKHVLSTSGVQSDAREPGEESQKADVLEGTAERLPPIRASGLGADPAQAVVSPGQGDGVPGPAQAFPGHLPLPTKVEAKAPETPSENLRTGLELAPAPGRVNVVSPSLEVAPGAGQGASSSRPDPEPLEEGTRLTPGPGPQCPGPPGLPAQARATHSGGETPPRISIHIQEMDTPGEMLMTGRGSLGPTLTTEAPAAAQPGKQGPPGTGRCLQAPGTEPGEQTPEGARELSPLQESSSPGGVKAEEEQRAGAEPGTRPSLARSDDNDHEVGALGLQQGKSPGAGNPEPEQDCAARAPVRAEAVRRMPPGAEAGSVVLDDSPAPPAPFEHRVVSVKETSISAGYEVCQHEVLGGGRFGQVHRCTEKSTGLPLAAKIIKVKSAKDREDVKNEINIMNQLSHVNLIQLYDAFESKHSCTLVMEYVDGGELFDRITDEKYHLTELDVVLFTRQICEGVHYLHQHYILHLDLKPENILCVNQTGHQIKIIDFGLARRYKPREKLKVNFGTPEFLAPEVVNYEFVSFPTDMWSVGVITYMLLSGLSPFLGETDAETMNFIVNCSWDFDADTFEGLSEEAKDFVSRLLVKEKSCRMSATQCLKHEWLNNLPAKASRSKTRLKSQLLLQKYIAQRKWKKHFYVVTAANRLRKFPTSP
Method in brief: as §1

[9] = molecular target: T9, scanMAX Kinase assay panel (Homo sapiens, UniProt Q9BVS4); settings: RIOK2; 1 uM; read-out: Percent Control (%)
T9 construct: purchased DiscoverX
Method in brief: as §1

[10] = molecular target: T10, scanMAX Kinase assay panel (Homo sapiens, UniProt Q5S007); settings: LRRK2; 1 uM; read-out: Percent Control (%)
T10 construct: purchased DiscoverX
Method in brief: as §1

T2 sequence (O00238 14-502): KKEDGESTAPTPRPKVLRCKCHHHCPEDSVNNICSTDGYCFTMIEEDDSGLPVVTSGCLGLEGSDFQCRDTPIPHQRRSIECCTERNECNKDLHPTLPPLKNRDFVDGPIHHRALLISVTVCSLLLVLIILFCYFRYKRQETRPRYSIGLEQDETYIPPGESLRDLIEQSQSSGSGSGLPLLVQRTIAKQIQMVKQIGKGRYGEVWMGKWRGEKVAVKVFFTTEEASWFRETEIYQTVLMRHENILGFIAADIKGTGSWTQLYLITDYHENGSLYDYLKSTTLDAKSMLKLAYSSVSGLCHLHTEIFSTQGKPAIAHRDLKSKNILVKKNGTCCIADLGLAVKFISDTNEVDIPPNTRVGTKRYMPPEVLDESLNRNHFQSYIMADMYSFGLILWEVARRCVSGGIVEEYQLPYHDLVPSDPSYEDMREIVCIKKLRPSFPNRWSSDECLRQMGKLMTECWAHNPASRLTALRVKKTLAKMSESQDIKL
T7 sequence (P35968 20-1356): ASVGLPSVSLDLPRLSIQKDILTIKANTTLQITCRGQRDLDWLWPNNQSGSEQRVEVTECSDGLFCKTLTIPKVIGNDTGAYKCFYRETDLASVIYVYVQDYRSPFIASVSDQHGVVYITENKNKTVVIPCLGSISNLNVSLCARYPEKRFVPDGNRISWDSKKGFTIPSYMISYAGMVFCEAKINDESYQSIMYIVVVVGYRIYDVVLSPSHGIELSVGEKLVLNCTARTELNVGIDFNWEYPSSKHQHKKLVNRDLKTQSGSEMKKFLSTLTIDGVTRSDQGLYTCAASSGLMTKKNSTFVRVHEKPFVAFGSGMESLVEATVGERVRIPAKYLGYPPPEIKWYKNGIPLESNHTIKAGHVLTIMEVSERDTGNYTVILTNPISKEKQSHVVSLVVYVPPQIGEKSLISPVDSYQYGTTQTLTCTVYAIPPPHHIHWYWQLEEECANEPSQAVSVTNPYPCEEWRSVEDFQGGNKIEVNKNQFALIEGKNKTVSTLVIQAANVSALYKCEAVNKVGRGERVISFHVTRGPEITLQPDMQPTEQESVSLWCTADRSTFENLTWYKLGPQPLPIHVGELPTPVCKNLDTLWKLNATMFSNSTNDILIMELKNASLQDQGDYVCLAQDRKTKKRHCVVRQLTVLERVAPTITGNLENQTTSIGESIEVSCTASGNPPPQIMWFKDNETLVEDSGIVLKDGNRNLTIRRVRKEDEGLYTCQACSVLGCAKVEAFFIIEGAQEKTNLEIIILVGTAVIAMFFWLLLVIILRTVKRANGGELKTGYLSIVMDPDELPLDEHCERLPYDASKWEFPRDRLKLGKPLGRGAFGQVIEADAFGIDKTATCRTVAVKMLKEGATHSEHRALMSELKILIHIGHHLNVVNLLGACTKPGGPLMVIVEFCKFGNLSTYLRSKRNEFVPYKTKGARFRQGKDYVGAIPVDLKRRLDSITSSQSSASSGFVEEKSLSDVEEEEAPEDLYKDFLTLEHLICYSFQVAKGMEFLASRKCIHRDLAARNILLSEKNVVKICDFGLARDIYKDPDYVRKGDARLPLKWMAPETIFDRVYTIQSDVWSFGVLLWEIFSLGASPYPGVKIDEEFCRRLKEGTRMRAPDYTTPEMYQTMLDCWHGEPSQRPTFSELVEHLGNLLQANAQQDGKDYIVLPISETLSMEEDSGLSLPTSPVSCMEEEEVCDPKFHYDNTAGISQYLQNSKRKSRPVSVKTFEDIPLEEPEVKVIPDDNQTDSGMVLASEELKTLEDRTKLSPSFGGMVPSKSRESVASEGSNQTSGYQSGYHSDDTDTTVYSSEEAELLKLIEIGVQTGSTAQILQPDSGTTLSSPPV
T9 sequence (Q9BVS4 whole entry): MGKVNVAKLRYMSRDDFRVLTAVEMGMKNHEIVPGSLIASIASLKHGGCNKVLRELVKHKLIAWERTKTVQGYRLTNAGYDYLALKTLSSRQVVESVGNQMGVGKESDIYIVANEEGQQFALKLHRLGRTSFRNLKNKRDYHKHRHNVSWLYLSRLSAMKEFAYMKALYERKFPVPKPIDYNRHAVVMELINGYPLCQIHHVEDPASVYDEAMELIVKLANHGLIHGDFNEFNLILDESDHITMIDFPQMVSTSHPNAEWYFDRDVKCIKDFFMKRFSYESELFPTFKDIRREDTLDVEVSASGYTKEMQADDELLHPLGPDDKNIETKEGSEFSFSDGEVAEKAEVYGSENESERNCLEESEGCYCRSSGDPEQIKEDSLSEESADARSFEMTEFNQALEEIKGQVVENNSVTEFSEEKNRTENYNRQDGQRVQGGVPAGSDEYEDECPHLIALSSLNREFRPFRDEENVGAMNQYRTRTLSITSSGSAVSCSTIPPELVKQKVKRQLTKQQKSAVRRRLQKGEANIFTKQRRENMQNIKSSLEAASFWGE
T6 sequence (P28482 whole entry): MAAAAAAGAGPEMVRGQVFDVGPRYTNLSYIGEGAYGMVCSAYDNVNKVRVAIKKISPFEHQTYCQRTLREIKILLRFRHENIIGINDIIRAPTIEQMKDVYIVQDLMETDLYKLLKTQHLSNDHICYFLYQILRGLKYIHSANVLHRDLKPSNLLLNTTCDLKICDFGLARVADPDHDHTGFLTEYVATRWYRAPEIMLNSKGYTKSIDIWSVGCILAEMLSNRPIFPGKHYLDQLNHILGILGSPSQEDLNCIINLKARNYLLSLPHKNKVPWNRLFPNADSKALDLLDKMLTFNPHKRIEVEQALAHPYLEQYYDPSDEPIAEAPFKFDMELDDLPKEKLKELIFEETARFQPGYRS
T4 sequence (Q9P289 whole entry): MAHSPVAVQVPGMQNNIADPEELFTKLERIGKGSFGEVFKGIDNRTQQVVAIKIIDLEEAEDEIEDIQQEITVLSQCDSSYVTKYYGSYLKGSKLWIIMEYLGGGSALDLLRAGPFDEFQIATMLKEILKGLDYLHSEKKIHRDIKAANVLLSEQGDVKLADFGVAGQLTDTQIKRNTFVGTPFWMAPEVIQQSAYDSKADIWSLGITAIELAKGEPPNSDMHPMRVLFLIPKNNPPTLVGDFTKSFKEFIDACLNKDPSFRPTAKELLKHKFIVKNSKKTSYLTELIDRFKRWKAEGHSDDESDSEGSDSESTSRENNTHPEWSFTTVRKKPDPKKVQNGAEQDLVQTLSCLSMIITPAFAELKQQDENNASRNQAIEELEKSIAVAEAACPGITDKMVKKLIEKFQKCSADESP
T1 sequence (P22607 23-806 G697C): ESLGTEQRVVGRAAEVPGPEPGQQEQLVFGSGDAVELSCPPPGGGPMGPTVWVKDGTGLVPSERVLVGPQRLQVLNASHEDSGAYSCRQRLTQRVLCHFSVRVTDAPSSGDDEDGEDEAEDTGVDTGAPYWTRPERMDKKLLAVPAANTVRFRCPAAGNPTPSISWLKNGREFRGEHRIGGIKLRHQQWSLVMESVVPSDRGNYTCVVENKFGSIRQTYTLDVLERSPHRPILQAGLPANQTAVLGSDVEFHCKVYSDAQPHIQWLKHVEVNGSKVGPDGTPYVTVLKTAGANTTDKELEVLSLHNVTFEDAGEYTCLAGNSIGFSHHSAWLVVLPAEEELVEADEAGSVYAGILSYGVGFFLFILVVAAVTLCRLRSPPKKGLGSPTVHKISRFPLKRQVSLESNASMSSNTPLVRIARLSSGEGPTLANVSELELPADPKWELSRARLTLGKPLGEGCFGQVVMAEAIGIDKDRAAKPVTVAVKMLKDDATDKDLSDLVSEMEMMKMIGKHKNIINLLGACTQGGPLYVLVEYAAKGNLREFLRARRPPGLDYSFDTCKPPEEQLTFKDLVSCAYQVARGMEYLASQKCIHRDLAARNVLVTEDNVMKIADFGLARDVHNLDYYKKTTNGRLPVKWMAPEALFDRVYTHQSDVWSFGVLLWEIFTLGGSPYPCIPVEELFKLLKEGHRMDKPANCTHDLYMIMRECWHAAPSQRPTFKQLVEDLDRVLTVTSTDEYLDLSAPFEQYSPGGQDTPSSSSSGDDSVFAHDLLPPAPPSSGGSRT
T5 sequence (Q13554 whole entry): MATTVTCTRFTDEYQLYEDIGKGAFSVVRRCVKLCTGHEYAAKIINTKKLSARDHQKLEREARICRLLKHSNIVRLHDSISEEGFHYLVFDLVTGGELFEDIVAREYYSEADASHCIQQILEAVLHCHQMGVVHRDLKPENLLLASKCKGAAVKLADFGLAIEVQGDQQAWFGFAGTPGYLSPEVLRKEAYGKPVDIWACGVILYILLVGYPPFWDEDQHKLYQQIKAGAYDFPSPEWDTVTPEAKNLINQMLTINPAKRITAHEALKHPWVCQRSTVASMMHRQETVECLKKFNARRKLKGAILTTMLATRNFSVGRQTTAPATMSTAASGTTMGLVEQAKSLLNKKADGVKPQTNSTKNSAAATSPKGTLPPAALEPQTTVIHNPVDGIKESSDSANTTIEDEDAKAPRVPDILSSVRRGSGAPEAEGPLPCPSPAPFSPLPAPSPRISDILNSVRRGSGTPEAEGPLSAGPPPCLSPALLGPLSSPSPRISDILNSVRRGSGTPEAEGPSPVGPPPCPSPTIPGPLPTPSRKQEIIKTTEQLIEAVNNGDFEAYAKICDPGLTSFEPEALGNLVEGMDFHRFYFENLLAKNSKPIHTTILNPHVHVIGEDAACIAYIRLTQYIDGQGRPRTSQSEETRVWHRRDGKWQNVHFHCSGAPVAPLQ

Cc1ccc(NC(=O)C2(C(=O)Nc3ccc(F)cc3)CC2)cc1C#Cc1cnc2c(Nc3cnn(C(C)C)c3)cccn12 [Example 78] gave a remaining binding at 1 µM [1] of 96%, a remaining binding at 1 µM [2] of 100% and a remaining binding at 1 µM [3] of 100%. For the same molecule, the remaining binding at 1 µM [4] was 100%, the remaining binding at 1 µM [5] was 100% and the remaining binding at 1 µM [6] was 100%. It also gave a remaining binding at 1 µM [7] of 63%, a remaining binding at 1 µM [8] of 100% and a remaining binding at 1 µM [9] of 100%. The remaining binding at 1 µM [10] was 95%.
Work on Cc1cn(-c2cc(NC(=O)c3ccc(C)c(C#Cc4cnc5c(Nc6cnn(C)c6)cccn45)c3)cc(C(F)(F)F)c2)cn1 [Example 12, 4-methyl-N-(3-(4-methyl-1H-imidazol-1-yl)-5-(trifluoromethyl)phenyl)-3-((8-((1-methyl-1H-pyrazol-4-yl)amino)imidazo[1,2-a]pyridin-3-yl)ethynyl)benzamide] yielded a remaining binding at 1 µM [1] of 34%, a remaining binding at 1 µM [2] of 100% and a remaining binding at 1 µM [3] of 62%. For the same molecule, the remaining binding at 1 µM [4] was 91%, the remaining binding at 1 µM [5] was 96% and the remaining binding at 1 µM [6] was 92%. The remaining binding at 1 µM [7] was 55%, the remaining binding at 1 µM [8] was 91% and the remaining binding at 1 µM [9] was 100%. The remaining binding at 1 µM [10] was 100%.
Cc1ccc(C(=O)Nc2ccc(CN3CCN(C)CC3)c(C(F)(F)F)c2)cc1C#Cc1cnc2c(Nc3cnn(C)c3)cccn12 [Example 1, 4-methyl-3-((8-((1-methyl-1H-pyrazol-4-yl)amino)imidazo[1,2-a]pyridin-3-yl)ethynyl)-N-(4-((4-methylpiperazin-1-yl)methyl)-3-(trifluoromethyl)phenyl)benzamide] showed a remaining binding at 1 µM [1] of 3%, a remaining binding at 1 µM [2] of 99% and a remaining binding at 1 µM [3] of 3%. It also gave a remaining binding at 1 µM [4] of 55%, a remaining binding at 1 µM [5] of 76% and a remaining binding at 1 µM [6] of 100%. It also gave a remaining binding at 1 µM [7] of 5%, a remaining binding at 1 µM [8] of 90% and a remaining binding at 1 µM [9] of 88%. The remaining binding at 1 µM [10] was 10%.
